Target: Complement factor D (Homo sapiens, UniProt P00746)
Assay: Human Factor D Assay
Description: Human Factor D (purified from human serum, Complement Technology, Inc.) at 80 nM final concentration is incubated with test compound at various concentrations for 5 min at room temperature in 50 mM Tris, 1M NaCl, pH 7.5. A synthetic substrate Z-L-Lys-SBzl and DTNB (Ellman's reagent) are added to final concentrations of 100 μM each. […] IC50 values are calculated by nonlinear regression of complement Factor D reaction rates as a function of test compound concentration.

Sequence of Complement factor D (P00746 whole entry): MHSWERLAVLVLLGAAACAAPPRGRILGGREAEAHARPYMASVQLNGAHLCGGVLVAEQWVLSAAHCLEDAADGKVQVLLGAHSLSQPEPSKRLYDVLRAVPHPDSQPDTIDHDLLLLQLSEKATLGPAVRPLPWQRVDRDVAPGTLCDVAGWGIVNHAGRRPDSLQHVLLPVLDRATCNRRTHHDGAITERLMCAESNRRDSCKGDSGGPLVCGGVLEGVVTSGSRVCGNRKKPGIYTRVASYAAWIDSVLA

Compound: CC(=O)c1nn(CC(=O)N2C[C@H](F)C[C@H]2C(=O)NC2CCN(C(=O)c3cn[nH]c3)CC2)c2ccc(-c3cnc(C)nc3)cc12 [US11407738, Example 00330]
- IC50: in the range around 5.5 µM
